Data taken from PMC11847258, “Phase I trial of the combination of the pan-ErbB inhibitor neratinib and mTOR inhibitor everolimus in advanced cancer patients with ErbB family gene alterations” (ESMO Open, 2025).
Read-outs that look alike come from different tables or passages of the source.

Assays:
[1] = Plasma pharmacokinetics on cycle 1, day 15 (LC/MS, noncompartmental analysis); format: in vivo, human; conditions: for AUC(0-t): read-out: AUC0-24; for clearance: read-out: CLss (converted); for concentration at 24 h: read-out: Ctau or C24
Method: Pharmacokinetic (PK) analysis was conducted on cycle 1, day 15 for both everolimus and neratinib with blood samples collected at pre-dose, 1, 3, 4, 6, 8, and 24 hours post-dose. Following good clinical and laboratory practices, blood was collected into K2-EDTA vacutainers, gently inverted and mixed, then centrifuged at 3000 rpm (1500 g) for 10 min at 4°C. The resultant plasma was placed into cryovials and frozen at −70°C until analysis.

[2] = cited from earlier work
[3] = cited from earlier work; remark: listed apart in the source
[4] = Dose Level 2: neratinib 200mg/day + everolimus 5mg/day, n=3, Cycle 1, Day 15, mean (range)
[5] = Dose Level 4: neratinib 240mg/day + everolimus 7.5mg/day, n=5, Cycle 1, Day 15, mean (range)
[6] = human, plasma, oral, Dose Level 2: neratinib 200mg/day + everolimus 5mg/day, n=3, Cycle 1, Day 15, mean (range)
[7] = human, plasma, oral, Dose Level 2: neratinib 200mg/day + everolimus 5mg/day, n=3, Cycle 1, Day 15, mean (range), read-out: Tmax
[8] = human, plasma, oral, Dose Level 4: neratinib 240mg/day + everolimus 7.5mg/day, n=5, Cycle 1, Day 15, mean (range)
[9] = monotherapy 5mg, N=4, ref O’Donnell et.al.
[10] = monotherapy 10mg, N=33, ref O’Donnell et.al.
[11] = monotherapy 10mg, N=33, ref O’Donnell et.al., listed as everolimus
[12] = monotherapy 240mg, N=3, ref Wong et.al.
[13] = monotherapy 240mg, N=3, ref Wong et.al., listed as neratinib

CO[C@H]1C[C@@H]2CC[C@@H](C)[C@@](O)(O2)C(=O)C(=O)N2CCCC[C@H]2C(=O)O[C@H]([C@H](C)C[C@@H]2CC[C@@H](OCCO)[C@H](OC)C2)CC(=O)[C@H](C)/C=C(\C)[C@@H](O)[C@@H](OC)C(=O)[C@H](C)C[C@H](C)/C=C/C=C/C=C/1C [Everolimus, everolimus]
AR (accumulation ratio) [1, 4]: 1.2 (1.1-1.3)
Ctau or C24 [1, 4]: 0.42 (0-1.1) ng/mL
AR (accumulation ratio) [1, 5]: 1.7 (1-2.6)
Ctau or C24 [1, 5]: 2.8 (0-9.9) ng/mL
Tmax [1, 5]: 4.8 h
AUC(0-inf) [1, 6]: 53.8 ng·h/mL
Cmax [1, 6]: 3.58 ng/mL
half-life [1, 6]: 492 min
AUC(0-t) [1, 6]: 24.3 ng·h/mL
clearance [1, 6]: 3370 mL/min
concentration at 24 h [1, 6]: 0.42 ng/mL
Tmax [1, 7]: 4.33 h
AUC(0-inf) [1, 8]: 253 ng·h/mL
Cmax [1, 8]: 8.5 ng/mL
half-life [1, 8]: 1010 min
AUC(0-t) [1, 8]: 116 ng·h/mL
clearance [1, 8]: 2300 mL/min
concentration at 24 h [1, 8]: 2.8 ng/mL
Tmax ([1]; human, plasma, oral, both groups (DL 2 and DL 4), with neratinib, read-out: mean Tmax): > 4 h
TRAE all grades: Anemia [2, 9]: 1 (25)
TRAE all grades: Anorexia [2, 9]: 1 (25)
TRAE all grades: Constipation [2, 9]: 1 (25)
TRAE all grades: Mucositis [2, 9]: 2 (50)
TRAE all grades: Nausea [2, 9]: 1 (25)
TRAE all grades: Pruritus [2, 9]: 1 (25)
TRAE all grades: Rash [2, 9]: 2 (50)
Grade ≥ 3 treatment-related: Anorexia [2, 10]: 2 (6.1)
Grade ≥ 3 treatment-related: Dyspnea [2, 10]: 1 (3)
Grade ≥ 3 treatment-related: Epistaxis [2, 10]: 1 (3)
Grade ≥ 3 treatment-related: GI hemorrhage [2, 10]: 1 (3)
Grade ≥ 3 treatment-related: Hyperglycemia [2, 10]: 2 (6.1)
Grade ≥ 3 treatment-related: Hypertriglyceridemia [2, 10]: 1 (3)
Grade ≥ 3 treatment-related: Mucositis [2, 10]: 2 (6.1)
Grade ≥ 3 treatment-related: Nausea [2, 10]: 1 (3)
Grade ≥ 3 treatment-related: Pneumonia [2, 10]: 1 (3)
Grade ≥ 3 treatment-related: Rash [2, 10]: 1 (3)
Grade ≥ 3 treatment-related: Thrombocytopenia [2, 10]: 2 (6.1)
TRAE all grades: Anorexia [2, 10]: 11 (33.3)
TRAE all grades: Constipation [2, 10]: 7 (21.2)
TRAE all grades: Diarrhea [2, 10]: 7 (21.2)
TRAE all grades: Fatigue [2, 10]: 12 (36.4)
TRAE all grades: Headache [2, 10]: 7 (21.2)
TRAE all grades: Mucositis [2, 10]: 17 (51.5)
TRAE all grades: Nausea [2, 10]: 14 (42.4)
TRAE all grades: Rash [2, 10]: 20 (60.6)
TRAE all grades: Vomiting [2, 10]: 5 (15.2)
TRAE all grades: Mucositis [2, 11]: 51.5
TRAE all grades: Nausea [2, 11]: 42.4
TRAE all grades: Rash [2, 11]: 60.6
Tmax ([2]; single agent): 1 to 2 h
dose with acceptable tolerability suggested by PK analysis (MTD undetermined) ([2]; single agent): 10 mg/day

CCOc1cc2ncc(C#N)c(Nc3ccc(OCc4ccccn4)c(Cl)c3)c2cc1NC(=O)/C=C/CN(C)C [Neratinib, neratinib]
TRAE all grades: Anorexia [3, 12]: 2 (67)
TRAE all grades: Diarrhea [3, 12]: 3 (100)
TRAE all grades: Fatigue [3, 12]: 2 (67)
TRAE all grades: Nausea [3, 12]: 2 (67)
TRAE all grades: Rash [3, 12]: 1 (33)
TRAE all grades: Vomiting [3, 12]: 1 (33)
TRAE all grades: Anorexia [3, 13]: 67
TRAE all grades: Diarrhea [3, 13]: 100
TRAE all grades: Fatigue [3, 13]: 67
TRAE all grades: Nausea [3, 13]: 67
MTD ([3]; monotherapy): 320 mg
AR (accumulation ratio) [1, 4]: 1.41(1.2-1.9)
AUC0-∞ [1, 4]: 910 (195-2125) ng*h/mL
Ctau or C24 [1, 4]: 13.6 (2.6-31.8) ng/mL
AR (accumulation ratio) [1, 5]: 2.29 (1.4-3.8)
Ctau or C24 [1, 5]: 44 (14.5-125) ng/mL
Cmax [1, 6]: 35.8 ng/mL
half-life [1, 6]: 786 min
AUC(0-t) [1, 6]: 400 ng·h/mL
clearance [1, 6]: 9970 mL/min
concentration at 24 h [1, 6]: 13.6 ng/mL
Tmax [1, 7]: 4.8 h
AUC(0-inf) [1, 8]: 3930 ng·h/mL
Cmax [1, 8]: 83.4 ng/mL
half-life [1, 8]: 1720 min
AUC(0-t) [1, 8]: 1170 ng·h/mL
clearance [1, 8]: 4820 mL/min
concentration at 24 h [1, 8]: 44 ng/mL
Tmax ([1]; human, plasma, oral, Dose Level 4: neratinib 240mg/day + everolimus 7.5mg/day, n=5, Cycle 1, Day 15, mean (range), read-out: Tmax): 4.2 h
